Where only a bound is given, the exact number is not on record here.

As a reminder, the Ki is a measure of affinity in units of concentration, obtained from inhibition or displacement.

Experiment [1] relates to NCI-H1299 cells. The experiment in a line: Induction of polyploidy in H1299. The experiment is classed as cell-based, Human. Particulars: NCI-H1299, 48 hours; for EC15: Homo sapiens, read-out: EC15 (concentration of inhibitor necessary to induce polyploidy in 15% of cells). The procedure, abridged: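 NCI-H1299 cells in RPMI 1640/10% FCS were treated with inhibitor concentrations in duplicate for 48 h at 37 C, then formalin-fixed and Hoechst-stained. Nuclear area was measured by high-content imaging, with polyploid (≥4N) defined as >750 μ^2. EC15 was derived by least-squares fit of log dose-response.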

The target in experiment [2] is KDR (Homo sapiens, UniProt P35968). As to the kind of experiment: KDR HTRF in vitro kinase assay. The experiment is classed as biochemical. On the set-up: purified enzyme (His6-KDR 789-1354, MW 63 kD); His6 (N). Particulars: 1 mM ATP; read-out: KDR enzyme inhibition data (Ki). In short, it runs like this: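 His6-KDR 789-1354 (7 ng/well) with 0.5 μM biotinylated peptide substrate and 1 mM ATP in HEPES pH 7.1, MgCl2/MnCl2, 60 min at room temperature. EDTA-quenched, detected by streptavidin-XL-665 plus Eu-kryptate anti-phosphotyrosine HTRF after 3 h; IC50 from 620/665 nm ratio.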
Sequence of KDR (P35968 789-1354): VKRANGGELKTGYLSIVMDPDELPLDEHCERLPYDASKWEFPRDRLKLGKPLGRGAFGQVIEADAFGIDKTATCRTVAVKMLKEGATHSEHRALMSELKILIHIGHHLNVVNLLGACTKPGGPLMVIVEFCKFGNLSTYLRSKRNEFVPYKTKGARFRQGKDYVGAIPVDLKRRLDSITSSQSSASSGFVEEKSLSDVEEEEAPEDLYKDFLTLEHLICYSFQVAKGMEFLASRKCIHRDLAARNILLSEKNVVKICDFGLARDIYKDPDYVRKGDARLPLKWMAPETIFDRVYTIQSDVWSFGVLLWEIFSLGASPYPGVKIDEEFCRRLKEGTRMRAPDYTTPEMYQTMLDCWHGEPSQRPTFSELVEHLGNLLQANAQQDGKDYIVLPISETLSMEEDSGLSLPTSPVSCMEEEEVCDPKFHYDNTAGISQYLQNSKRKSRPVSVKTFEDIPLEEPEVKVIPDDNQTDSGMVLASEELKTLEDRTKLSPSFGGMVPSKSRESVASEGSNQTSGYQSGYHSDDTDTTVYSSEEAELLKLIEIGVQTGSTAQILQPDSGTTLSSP
(Time-resolved FRET reads energy transfer from a long-lived donor to a nearby acceptor.)

`CC(O)Cn1cc(Nc2ncc(C(F)(F)F)c(NC3C4C=CC(C4)C3C(N)=O)n2)cn1` (mixture of isomers) [Example 19, (1R,2R,3S,4S)-3-{[2-({1-[(2R)-2-hydroxypropyl]-1H-pyrazol-4-yl}amino)-5-(trifluoromethyl)pyrimidin-4-yl]amino}bicyclo[2.2.1]hept-5-ene-2-carboxamide and (1S,2S,3R,4R)-3-{[2-({1-[(2R)-2-hydroxypropyl]-1H-pyrazol-4-yl}amino)-5-(trifluoromethyl)pyrimidin-4-yl]amino}bicyclo[2.2.1]hept-5-ene-2-carboxamide]: the “EC15 (concentration of inhibitor necessary to induce polyploidy in 15% of cells)” value in experiment [1] is on record as “A (“A” represents an EC15 of less than 0.1 μM)”. For the same compound, the Ki in experiment [2] was below 100 nM.
For `Cc1nn(C)cc1Nc1ncc(Cl)c(N[C@H]2[C@@H](C(N)=O)[C@@H]3C=C[C@H]2C3)n1` [Example 134, (1S,2S,3R,4R)-3-({5-chloro-2-[(1,3-dimethyl-1H-pyrazol-4-yl)amino]pyrimidin-4-yl}amino)bicyclo[2.2.1]hept-5-ene-2-carboxamide], the EC15 in experiment [1] was below 100 nM. The Ki in experiment [2] was below 100 nM.
As for `COc1cccc(CCn2cc(Nc3ncc(Br)c(N[C@H]4[C@@H](C(N)=O)[C@@H]5C=C[C@H]4C5)n3)cn2)c1` [Example 160, (1S,2S,3R,4R)-3-{[5-bromo-2-({1-[2-(3-methoxyphenyl)ethyl]-1H-pyrazol-4-yl}amino)pyrimidin-4-yl]amino}bicyclo[2.2.1]hept-5-ene-2-carboxamide], the EC15 in experiment [1] is below 100 nM. In addition, the Ki in experiment [2] was below 100 nM.
Turning to `CC(C)NC(=O)C1CCCC1Nc1nc(Nc2cnn(C3CCNCC3)c2)ncc1Cl` (racemic) [Example 163, (1S,2R)-2-[(5-chloro-2-{[1-(piperidin-4-yl)-1H-pyrazol-4-yl]amino}pyrimidin-4-yl)amino]-N-isopropylcyclopentanecarboxamide and (1R,2S)-2-[(5-chloro-2-{[1-(piperidin-4-yl)-1H-pyrazol-4-yl]amino}pyrimidin-4-yl)amino]-N-isopropylcyclopentanecarboxamide], the “EC15 (concentration of inhibitor necessary to induce polyploidy in 15% of cells)” value in experiment [1] is “A (“A” represents an EC15 of less than 0.1 μM)”. Also, in experiment [2], the Ki is 100 to 1000 nM.
Regarding `NC(=O)[C@@H]1[C@H](Nc2nc(Nc3cnn(CC4CCO4)c3)ncc2Cl)[C@H]2C=C[C@@H]1C2` (stereo partly drawn) [Example 129, (1S,2S,3R,4R)-3-[(5-chloro-2-{[1-(oxetan-2-ylmethyl)-1H-pyrazol-4-yl]amino}pyrimidin-4-yl)amino]bicyclo[2.2.1]hept-5-ene-2-carboxamide], the EC15 in experiment [1] was below 100 nM. Also, the Ki in experiment [2] is below 100 nM.
For the compound `NC(=O)[C@@H]1[C@H](Nc2nc(Nc3cnn([C@@H]4CCOC4)c3)ncc2Br)[C@H]2C=C[C@@H]1C2` [Example 116, (1S,2S,3R,4R)-3-{[5-bromo-2-({1-[(3R)-tetrahydrofuran-3-yl]-1H-pyrazol-4-yl}amino)pyrimidin-4-yl]amino}bicyclo[2.2.1]hept-5-ene-2-carboxamide], the EC15 in experiment [1] is below 100 nM. Moreover, the Ki in experiment [2] was below 100 nM.
As to `NC(=O)[C@@H]1CCC[C@@H]1Nc1nc(Nc2cnn(C3CCNCC3)c2)ncc1Cl.NC(=O)[C@H]1CCC[C@H]1Nc1nc(Nc2cnn(C3CCNCC3)c2)ncc1Cl` (mixture of isomers) [Example 136, (1S,2R)-2-[(5-chloro-2-{[1-(piperidin-4-yl)-1H-pyrazol-4-yl]amino}pyrimidin-4-yl)amino]cyclopentanecarboxamide and (1R,2S)-2-[(5-chloro-2-{[1-(piperidin-4-yl)-1H-pyrazol-4-yl]amino}pyrimidin-4-yl)amino]cyclopentanecarboxamide], in experiment [1], the “EC15 (concentration of inhibitor necessary to induce polyploidy in 15% of cells)” value is reported as “A (“A” represents an EC15 of less than 0.1 μM)”. Moreover, in experiment [2], the inhibition constant (Ki) is 100 to 1000 nM.
Take `NC(=O)[C@@H]1[C@H](Nc2nc(Nc3cnn(Cc4ccccc4)c3)ncc2Br)[C@H]2C=C[C@@H]1C2` [Example 149, (1S,2S,3R,4R)-3-({2-[(1-benzyl-1H-pyrazol-4-yl)amino]-5-bromopyrimidin-4-yl}amino)bicyclo[2.2.1]hept-5-ene-2-carboxamide]: in experiment [1], the EC15 is below 100 nM. Besides, the Ki in experiment [2] is below 100 nM.

The values are drawn from patent publication US8426408B2, “Pyrimidine inhibitors of kinases” (AbbVie Inc., priority 2009, dated 2013).
